pKi: −log10 of the molar value. No end group written: not given here.
Columns and labels:
[1] = test system: cardiac remodeling induced by Isoproterenol in Wistar rats; experiment: Cardiac remodeling induced by Isoproterenol; assay type: in vivo, rat
Protocol: The effect of the peptides […] (SEQ ID NO:10), […]-dimer ([…]) (SEQ ID NO9), P33_V (SEQ ID NO:7), P33-dimer (P33_D) (SEQ ID NO:6) on cardiac remodeling, was tested by determining their effect on heart hypertrophy and fibrosis (deposition of collagen I, III, and fibronectin) induced by Isoproterenol. Losartan (an antagonist of the known angiotensin II receptor, AT1, Kucharewicz et al., 2002; Hypertension, (40): 774-779) was used as positive control. The negative control group was treated with vehicle only. Additional control groups included rats not-treated with isoproterenol which were treated with the peptides, with Losartan or with the vehicle. The analysis included determination of the left ventricle mass and morphometry. In addition, immunofuorescence analysis of fibronectin and collagens I and III deposition was performed by confocal microcopy. Animals Acclimatization: Male Wistar rats Age: 13-14 weeks (250 to 300 g) were maintained in the animal facilities for 7 days before the beginning of the experiment. The animals were exposed to a brightness circle of light-dark cycle of 12hs (day-06:00 to 18:00; night-18:00 to 06:00), and the room temperature was kept at 23±2° C. Heart failure was induced by daily injections of isoproterenol (2 mg/kg/day, subcutaneously) during 7 days. […] Immunofluorescence-labeling and quantitative confocal microscopy was used to investigate the distribution and quantity of collagen types I, III and fibronectin present in the left ventricles. […] Optimal confocal settings (aperture, gain and laser power) were determined at the beginning of each imaging session and then held constant during the analysis of all the samples. […] For quantitative analysis of collagens I, III, and fibronectin, the ImageTool 2.0 image analysis program was used (see “[…] University of Texas Health Science Center at San Antonio website) to measure the fluorescence intensity in images randomly selected. […]

Mas receptor = target: T1, Mas receptor (Homo sapiens, UniProt P04201); experiment: Calcium flux in Mas-transfected CHO-K1 cells; assay type: cell-based; details: dose response, Mas-transfected cells
T1 construct: expressed in transfected cells; host or cells: CHO-K1 (ATCC-CCL-61), transient co-transfection
T1 sequence (P04201 1-325): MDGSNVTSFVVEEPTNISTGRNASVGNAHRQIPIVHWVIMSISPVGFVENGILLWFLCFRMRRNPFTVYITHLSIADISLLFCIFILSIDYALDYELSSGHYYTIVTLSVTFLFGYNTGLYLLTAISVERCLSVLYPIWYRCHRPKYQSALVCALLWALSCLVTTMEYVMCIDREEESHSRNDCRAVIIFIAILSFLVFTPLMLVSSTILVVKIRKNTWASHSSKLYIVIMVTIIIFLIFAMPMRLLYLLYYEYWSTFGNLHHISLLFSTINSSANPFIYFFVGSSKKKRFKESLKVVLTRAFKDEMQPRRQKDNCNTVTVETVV
Protocol: (§1) The assay was carried out in CHO cells were transiently transfected with the GPCR of choice, by utilizing the promiscuous Gα16 to divert signaling to the Gq pathway, thus enabling readout of GPCR activation by testing for Calcium flux as described by Liu et al 2003 (Biomol Screen 8, 39-49).
(§2) All the peptides thus obtained were tested for their ability to change calcium flux in CHO-K1 cells (ATCC-CCL-61) transiently co-transfected with an expression vector containing the GPCR of choice and expression vector containing the Gα16 encoding cDNA. Expression constructs containing cDNA clones for MrgX1, MrgX2, Mas or FPRL1 were commercially obtained in one of the following expression vectors: pcDNA3.1, pCMV6, or MO2.
(§3) Transient transfections were performed using CHO-K1 cells as host cells. Cells (12 million) were plated into T75 flasks on the day preceding transfection. Cells were transfected with the appropriate GPCR expression vector and with a vector expressing Gα16 using a lipid-based reagent, MTI, according to the manufacturer's recommendation. Cells were transfected for 5 hours, then re-plated into 96-well dishes (60,000 cells per well) and grown overnight.
(§4) On the day of the experiment, cells were loaded with Fluo-4-NW (Invitrogen) according to the manufacturer's recommendation. Plates were loaded into a FlexStation™ (Molecular Devices) plate reader and fluorescence was monitored. Seventeen seconds following initiation of reading, cells were stimulated with the indicated agonist/compound at final concentration of 1 μM. Each 96 well plate contained cells transfected with one GPCR expression vector and each of the examined peptides was tested in triplicate.
(§5) We defined a hit as a peptide which elicited a clear and distinct increase in intracellular calcium that is clearly visible and statistically significant upon examination of the calcium trace for at least two repeats. The criterion for statistical significance was a p-value lower than 0.001 in a t-test comparing the levels of calcium before and after peptide addition.
Based on dose response experiments, EC50 best fit values were calculated by non-linear regression of sigmoidal dose-response curves, using Prism version 4 (GraphPad Software Inc., San Diego, Calif.). The formulae for the sigmoidal dose-response curves was defined as Y=Bottom+(Top−Bottom)/(1+10^(Log EC50−X)*HillSlope))
The ability of Peptides to change calcium flux was examined in CHO-K1 cells co-transfected with Mas receptor and Gα16.
The P33 monomer and dimer, as well as other P33 derivative peptides were compared for their ability to induce calcium flux in the Mas-transfected cells at 0.1, 1, 10, 100, 1000 and 10000 nM.

MrgX2 = target: T2, MrgX2 (Homo sapiens, UniProt Q96LB1); experiment: Calcium flux in MrgX2-transfected CHO-K1 cells; assay type: cell-based; details: for calcium flux relative to the negative control: CHO-K1 co-transfected with MrgX2 and Gα16, 1 μM, about 20-90 seconds; for eliciting calcium flux compared with cortistatin-14: summary statement, MrgX2-expressing cells
T2 construct: expressed in transfected cells; host or cells: CHO-K1 (ATCC-CCL-61), transient co-transfection
T2 sequence (Q96LB1 1-330): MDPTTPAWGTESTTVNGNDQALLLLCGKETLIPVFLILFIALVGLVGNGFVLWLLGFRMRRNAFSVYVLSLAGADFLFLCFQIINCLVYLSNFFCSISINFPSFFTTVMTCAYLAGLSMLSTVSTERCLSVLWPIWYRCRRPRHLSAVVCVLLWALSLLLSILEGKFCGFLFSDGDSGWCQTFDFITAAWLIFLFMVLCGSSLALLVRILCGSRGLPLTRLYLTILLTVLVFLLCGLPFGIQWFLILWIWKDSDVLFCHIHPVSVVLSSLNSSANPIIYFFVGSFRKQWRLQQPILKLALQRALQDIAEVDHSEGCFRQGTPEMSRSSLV
Protocol: as §1, §2, §3, §4, §5
The ability of Peptides to change calcium flux was examined in CHO-K1 cells co-transfected with MrgX2 and Gα16.

FPRL1 [2] = target: T3, FPRL1 (Homo sapiens, UniProt P25090); experiment: Calcium flux in FPRL1-transfected CHO-K1 cells; assay type: cell-based; set-up: expressed in transfected cells; host or cells: CHO-K1 (ATCC-CCL-61), transient co-transfection; details: for calcium flux relative to the negative control: CHO-K1 co-transfected with FPRL1 and Gα16, 1 μM, about 20-90 seconds
T3 sequence (P25090 1-351): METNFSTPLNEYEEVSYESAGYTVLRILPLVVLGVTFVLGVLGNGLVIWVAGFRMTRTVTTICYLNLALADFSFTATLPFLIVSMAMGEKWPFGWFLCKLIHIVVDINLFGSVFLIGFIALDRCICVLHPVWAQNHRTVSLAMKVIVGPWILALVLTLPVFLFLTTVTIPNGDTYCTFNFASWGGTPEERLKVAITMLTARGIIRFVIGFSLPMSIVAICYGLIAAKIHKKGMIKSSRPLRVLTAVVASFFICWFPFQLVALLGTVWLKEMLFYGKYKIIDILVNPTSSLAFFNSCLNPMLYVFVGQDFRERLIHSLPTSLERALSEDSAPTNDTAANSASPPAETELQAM
Protocol: as §1, §2, §3
On the day of the experiment, cells were loaded with Fluo-4-NW (Invitrogen) according to the manufacturer's recommendation. Plates were loaded into a FlexStation™ (Molecular Devices) plate reader and fluorescence was monitored. […] Each 96 well plate contained cells transfected with one GPCR expression vector and each of the examined peptides was tested in triplicate.
as §5
The ability of Peptides to change calcium flux was examined in CHO-K1 cells co-transfected with FPRL1 and Gα16.
The P33-derived peptides (see FIG. 1): P33_V (SEQ ID NO:7), P33 (SEQ ID NO:6)-mono, P33 (SEQ ID NO:6)-dimer, P33—5 (SEQ ID NO:27), P33—8 (SEQ ID NO:14), P33—9 (SEQ ID NO:15) and P33—10 (SEQ ID NO:16) were tested for their ability to activate FPRL1 using the calcium flux assay in FPRL1-transfected CHO cells. […] The lack of activity of these peptides might be due to reduced potency; insufficient sensitivity of the experimental system, alternative interaction of the receptor, or activation of other pathways, which are not related to calcium flux. Thus, this interaction should be further characterized.

FPRL1 [3] = target: T3, FPRL1; experiment: Competitive radioligand binding assay to FPRL1 ([125I] WKYMVm); set-up: expressed in transfected cells; host or cells: CHO cells; details: 0.025 nM [125I] WKYMVm; CHO transfected cells
Protocol: The specific binding of Peptide 58 (SEQ ID NO:1) to FPRL1 was analyzed by testing its ability to compete with 0.025 nM [^125I] WKYMVm (W peptide), a known agonist of FPRL1, for binding to FPRL1 in CHO transfected cells. CKβ8-1 (aa 46-137), another known ligand of FPRL1 was used as a positive control in this assay (Chiang et al 2006, Pharmacological Reviews 58, 463-487). Peptides were incubated with cells for 90 minutes at 25° C., in the presence of Incubation Buffer (50 mM HEPES, pH 7.4, 100 mM NaCl, 5 mM KCl, 5 mM MgCl2, 2 mM Ca Cl2, 0.5% BSA) and the amount of radioactive W peptide was measured.

Row | Compound | calcium flux relative to the negative control (MrgX2) | eliciting calcium flux compared with cortistatin-14 (MrgX2) | calcium flux relative to the negative control (FPRL1 [2]) | also measured
1 | FLGYCIYLNRKRRGDPAFKRRLRD (also: dimer via cysteine; listed as Homo sapiens) [Peptide P61_dimer] | – | – | – | heart hypertrophy as measured by deposition of Fibronectin, Collagen I and Collagen III ([1]; 1 ug/hour/Kg by osmotic minipump, partial data, 3 out of 6 animals of each group): effective in reducing the heart hypertrophy; effect as measured by Fibronectin deposition ([1]; partial data, 3 out of 6 animals, FIG. 40): not significant; ability to induce calcium flux, relative potency (P61 family) (Mas receptor): more potent than the monomeric P61 peptides
2 | AHAQHFHKHQLWPSPFRALKPRP (listed as Homo sapiens) [Peptide 63] | increased calcium flux | superior to cortistatin-14 | – | –
3 | CCCCc1nc(Cl)c(CO)n1Cc1ccc(-c2ccccc2-c2nn[nH]n2)cc1 [Losartan, reference compound] | – | – | – | left ventricle to body mass ratio (LV/BW) ([1]; isoproterenol 2 mg/kg/day s.c. 7 days, peptides 1 ug/hour/Kg by osmotic minipump, Losartan 1 mg/kg once a day by gavage): did not have an effect
4 | TIPMFVPESTSKLQKFTSWFM-NH2 [Peptide P58] | – | – | increased calcium flux | calcium flux (P58 family) (FPRL1 [2]; dose response, FPRL1 transfected CHO cells): elicited calcium flux; pKi (FPRL1 [3]): 7.27
5 | AAQATGPLQDNELPGLDERPPRAHAQHFHKHQLWPSPFRALKPRP (listed as Homo sapiens) [Peptide P94] | increased calcium flux | superior to cortistatin-14 | increased calcium flux | –
